Like-named read-outs stand apart in the source and are kept apart here.
Test system: Pfeiffer cells, lymphoma cells having EZH2 mutation (A677G)
Assay: Proliferation inhibition of cells of hematologic malignancies (CCK-8, 11 days)
Type: cell-based
Details: 11 days culture, read-out: Cell proliferation inhibitory effect (IC50)
Description: The growth inhibitory activity of 1,3-benzodioxole derivative compounds represented by chemical formula I of the present invention against Pfeiffer cells, which are lymphoma cells having EZH2 mutation (A677G), was evaluated.
Pfeiffer was cultured using RPMI1640 containing 10% fetal bovine serum. The cells were inoculated into wells of a 96-well culture dish at 10,000 cells each, and cultured for 11 days after treating with the test material for each concentration. For 11 days, the test material was replaced every three to four days. After culturing, the cells were treated with a cell counting kit-8 (CCK-8) reagent for each well, absorbance was measured at 450 nm, and IC50 values for cell proliferation were obtained through curve fitting of non-linear regression in the GraphPad program (GraphPad Prism 5.0 software).

IC50 (Homo sapiens, Pfeiffer, 264 h)	IC50	Structure (SMILES)
≤ 10 nM		COCCN(C)[C@H]1CC[C@H](C2(C)Oc3c(-c4cnc(N(C)C)nc4)cc(C(=O)NCc4c(SC)cc(C)[nH]c4=O)c(C)c3O2)CC1 (stereo partly drawn) [Compound 26, 7-(2-(dimethylamino)pyrimidin-5-yl)-2-(trans-4-((2-methoxyethyl)(methyl)amino)cyclohexyl)-2,4-dimethyl-N-((6-methyl-4-(methylthio)-2-oxo-1,2-dihydropyridin-3-yl)methyl)benzo[d][1,3]dioxole-5-carboxamide]
≤ 10 nM		CSc1cc(C)[nH]c(=O)c1CNC(=O)c1cc(-c2ccc(N3C[C@@H](C)O[C@@H](C)C3)nc2)c2c(c1C)OC(C)(C1CCN(C[C@H](C)O)CC1)O2 (stereo partly drawn) [Compound 40, 7-(6-((2S,6R)-2,6-dimethylmorpholino)pyridin-3-yl)-2-(1-((S)-2-hydroxypropyl)piperidin-4-yl)-2,4-dimethyl-N-((6-methyl-4-(methylthio)-2-oxo-1,2-dihydropyridin-3-yl)methyl)benzo[d][1,3]dioxole-5-carboxamide]
	≥ 100 nM	CSc1cc(C)[nH]c(=O)c1CNC(=O)c1cc(-c2ccc(N3C[C@@H](C)O[C@@H](C)C3)nc2)c2c(c1C)OC(C)([C@H]1CC[C@H](N(C)CC(F)(F)F)CC1)O2 (single isomer, unassigned) [Compound 108]
	≥ 100 nM	CCN1CCC(C2(C)Oc3c(-c4cnc(N5CCOCC5)nc4)cc(C(=O)NCc4c(SC)cc(C)[nH]c4=O)c(C)c3O2)CC1 (centres unmarked) [Compound 74, 2-(1-ethylpiperidin-4-yl)-2,4-dimethyl-N-((6-methyl-4-(methylthio)-2-oxo-1,2-dihydropyridin-3-yl)methyl)-7-(2-morpholinopyrimidin-5-yl)benzo[d][1,3]dioxole-5-carboxamide]
≤ 10 nM		CSc1cc(C)[nH]c(=O)c1CNC(=O)c1cc(-c2ccc(N3C[C@@H](C)O[C@@H](C)C3)nc2)c2c(c1C)OC(C)([C@H]1CC[C@H](N(C)CCc3ccccc3)CC1)O2 (stereo partly drawn) [Compound 112, 7-(6-((2S,6R)-2,6-dimethylmorpholino)pyridin-3-yl)-2,4-dimethyl-2-(trans-4-(methyl(phenethyl)amino)cyclohexyl)-N-((6-methyl-4-(methylthio)-2-oxo-1,2-dihydropyridin-3-yl)methyl)benzo[d][1,3]dioxole-5-carboxamide]
≤ 10 nM		COCCN(C)[C@H]1CC[C@H](C2(C)Oc3c(-c4ccc(N5C[C@@H](C)O[C@@H](C)C5)nc4)cc(C(=O)NCc4c(SC)cc(C)[nH]c4=O)c(C)c3O2)CC1 (stereo partly drawn) [Compound 24, 7-(6-((2S,6R)-2,6-dimethylmorpholino)pyridin-3-yl)-2-(trans-4-((2-methoxyethyl)(methyl)amino)cyclohexyl)-2,4-dimethyl-N-((6-methyl-4-(methylthio)-2-oxo-1,2-dihydropyridin-3-yl)methyl)benzo[d][1,3]dioxole-5-carboxamide]
	≤ 10 nM	CCN1CCC(C2(C)Oc3c(-c4ccc(N5CCOCC5)nc4)cc(C(=O)NCc4c(SC)cc(C)[nH]c4=O)c(C)c3O2)CC1 (single isomer, unassigned) [Compound 66, 2-(1-ethylpiperidin-4-yl)-2,4-dimethyl-N-((6-methyl-4-(methylthio)-2-oxo-1,2-dihydropyridin-3-yl)methyl)-7-(6-morpholinopyridin-3-yl)benzo[d][1,3]dioxole-5-carboxamide]
≥ 100 nM		CSc1cc(C)[nH]c(=O)c1CNC(=O)c1cc(-c2ccc3occc3c2)c2c(c1C)OC(C)(C1CCN(CC(F)F)CC1)O2 (centres unmarked) [Compound 97, 7-(benzofuran-5-yl)-2-(1-(2,2-difluoroethyl)piperidin-4-yl)-2,4-dimethyl-N-((6-methyl-4-(methylthio)-2-oxo-1,2-dihydropyridin-3-yl)methyl)benzo[d][1,3]dioxole-5-carboxamide]
≤ 10 nM		CSc1cc(C)[nH]c(=O)c1CNC(=O)c1cc(-c2ccc(N3C[C@@H](C)O[C@@H](C)C3)nc2)c2c(c1C)OC(C)([C@H]1CC[C@H](N3CC(O)C3)CC1)O2 (stereo partly drawn) [Compound 101, 7-(6-((2S,6R)-2,6-dimethylmorpholino)pyridin-3-yl)-2-(trans-4-(3-hydroxyazetidin-1-yl)cyclohexyl)-2,4-dimethyl-N-((6-methyl-4-(methylthio)-2-oxo-1,2-dihydropyridin-3-yl)methyl)benzo[d][1,3]dioxole-5-carboxamide]
≤ 10 nM		CSc1cc(C)[nH]c(=O)c1CNC(=O)c1cc(-c2ccc(N3C[C@@H](C)O[C@@H](C)C3)nc2)c2c(c1C)OC(C)([C@H]1CC[C@H](N(C)C(C)C)CC1)O2 (stereo partly drawn) [Compound 110, 7-(6-((2S,6R)-2,6-dimethylmorpholino)pyridin-3-yl)-2-(trans-4-(isopropyl(methyl)amino)cyclohexyl)-2,4-dimethyl-N-((6-methyl-4-(methylthio)-2-oxo-1,2-dihydropyridin-3-yl)methyl)benzo[d][1,3]dioxole-5-carboxamide]
≤ 10 nM		CSc1cc(C)[nH]c(=O)c1CNC(=O)c1cc(-c2ccc(N3CCOCC3)cc2)c2c(c1C)OC(C)([C@H]1CC[C@H](N(C)C)CC1)O2 (stereo partly drawn) [Compound 9, 2-(trans-4-(dimethylamino)cyclohexyl)-2,4-dimethyl-N-((6-methyl-4-(methylthio)-2-oxo-1,2-dihydropyridin-3-yl)methyl)-7-(4-morpholinophenyl)benzo[d][1,3]dioxole-5-carboxamide]
≤ 10 nM		CSc1cc(C)[nH]c(=O)c1CNC(=O)c1cc(-c2ccc(N3C[C@@H](C)O[C@@H](C)C3)nc2)c2c(c1C)OC(C)([C@H]1CC[C@H](N3CC(OCC(F)F)C3)CC1)O2 (stereo partly drawn) [Compound 103, 2-(trans-4-(3-(2,2-difluoroethoxy)azetidin-1-yl)cyclohexyl)-7-(6-((2S,6R)-2,6-dimethylmorpholino)pyridin-3-yl)-2,4-dimethyl-N-((6-methyl-4-(methylthio)-2-oxo-1,2-dihydropyridin-3-yl)methyl)benzo[d][1,3]dioxole-5-carboxamide]
≤ 10 nM		CCN1CCC(C2(C)Oc3c(-c4ccc(N(C)CC)nc4)cc(C(=O)NCc4c(SC)cc(C)[nH]c4=O)c(C)c3O2)CC1 (single isomer, unassigned) [Compound 89, 7-(6-(ethyl(methyl)amino)pyridin-3-yl)-2-(1-ethylpiperidin-4-yl)-2,4-dimethyl-N-((6-methyl-4-(methylthio)-2-oxo-1,2-dihydropyridin-3-yl)methyl)benzo[d][1,3]dioxole-5-carboxamide]
≤ 10 nM		CCN1CCN(c2ncc(-c3cc(C(=O)NCc4c(SC)cc(C)[nH]c4=O)c(C)c4c3OC(C)(C3CCN(CC(F)(F)F)CC3)O4)cn2)CC1 (centres unmarked) [Compound 75, 7-(2-(4-ethylpiperazin-1-yl)pyrimidin-5-yl)-2,4-dimethyl-N-((6-methyl-4-(methylthio)-2-oxo-1,2-dihydropyridin-3-yl)methyl)-2-(1-(2,2,2-trifluoroethyl)piperidin-4-yl)benzo[d][1,3]dioxole-5-carboxamide]
≤ 10 nM		CSc1cc(C)[nH]c(=O)c1CNC(=O)c1cc(-c2cnc(N(C)C)nc2)c2c(c1C)OC(C)([C@H]1CC[C@H](N(C)CC(F)(F)F)CC1)O2 (stereo partly drawn) [Compound 22, 7-(2-(dimethylamino)pyrimidin-5-yl)-2,4-dimethyl-2-(trans-4-(methyl(2,2,2-trifluoroethyl)amino)cyclohexyl)-N-((6-methyl-4-(methylthio)-2-oxo-1,2-dihydropyridin-3-yl)methyl)benzo[d][1,3]dioxole-5-carboxamide]
	≤ 10 nM	CSc1cc(C)[nH]c(=O)c1CNC(=O)c1cc(-c2ccc(N3C[C@@H](C)O[C@@H](C)C3)nc2)c2c(c1C)OC(C)(C1CCN(CCc3ccccc3)CC1)O2 (single isomer, unassigned) [Compound 55]
≤ 10 nM		CSc1cc(C)[nH]c(=O)c1CNC(=O)c1cc(-c2ccc(N3CCSCC3)nc2)c2c(c1C)OC(C)([C@H]1CC[C@H](N(C)C)CC1)O2 (stereo partly drawn) [Compound 17, 2-(trans-4-(dimethylamino)cyclohexyl)-2,4-dimethyl-N-((6-methyl-4-(methylthio)-2-oxo-1,2-dihydropyridin-3-yl)methyl)-7-(6-thiomorpholinopyridin-3-yl)benzo[d][1,3]dioxole-5-carboxamide]
≤ 10 nM		CSc1cc(C)[nH]c(=O)c1CNC(=O)c1cc(-c2ccc(N3C[C@@H](C)O[C@@H](C)C3)nc2)c2c(c1C)OC(C)([C@H]1CC[C@H](N(C)C)CC1)O2 (stereo partly drawn) [Compound 1, 2-(trans-4-(dimethylamino)cyclohexyl)-7-(6-((2S,6R)-2,6-dimethylmorpholino)pyridin-3-yl)-2,4-dimethyl-N-((6-methyl-4-(methylthio)-2-oxo-1,2-dihydropyridin-3-yl)methyl)benzo[d][1,3]dioxole-5-carboxamide]
10 to 100 nM		CSc1cc(C)[nH]c(=O)c1CNC(=O)c1cc(-c2ccc3c(c2)OCO3)c2c(c1C)OC(C)(C1CCN(CC(F)F)CC1)O2 (centres unmarked) [Compound 95, 2-(1-(2,2-difluoroethyl)piperidin-4-yl)-2,7-dimethyl-N-((6-methyl-4-(methylthio)-2-oxo-1,2-dihydropyridin-3-yl)methyl)-[4,5′-bibenzo[d][1,3]dioxol]-6-carboxamide]
	≤ 10 nM	CSc1cc(C)[nH]c(=O)c1CNC(=O)c1cc(-c2cnc(N3CCOCC3)nc2)c2c(c1C)OC(C)(C1CCN(CC(F)F)CC1)O2 (single isomer, unassigned) [Compound 71, 2-(1-(2,2-difluoroethyl)piperidin-4-yl)-2,4-dimethyl-N-((6-methyl-4-(methylthio)-2-oxo-1,2-dihydropyridin-3-yl)methyl)-7-(2-morpholinopyrimidin-5-yl)benzo[d][1,3]dioxole-5-carboxamide]

Source: patent US20250059180A1 (DONG WHA PHARM. CO., LTD., priority 2022, published 2025)
